Assays:
Assay in all cases: relative viability (nuclei count vs DMSO), 5 days (fraction); higher = more cells survive
[1] = compound: CCn1c(-c2nonc2N)nc2cnc(Oc3cccc(NC(=O)c4ccc(OCCN5CCOCC5)cc4)c3)cc21 + CC(=O)Nc1cccc(-n2c(=O)n(C3CC3)c(=O)c3c(Nc4ccc(I)cc4F)n(C)c(=O)c(C)c32)c1 [Trametinib] (partner 0.02 µM)
How it was run: (§1)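 Nuclei were stained with Hoechst during a one-step fixation (final 0.05% Triton X-100, 1% formaldehyde, 1 ug/ml Hoechst) carried out 5 days after dosing, then counted on 4× images. The cells, lung cancer lines in 1536-well plates, had been dosed by pin tool the day after seeding with one drug alone or a fixed anchor-drug dose plus five library-drug doses (not always all listed) in √10 steps. Relative viability is the nuclei count in treated wells divided by that in vehicle wells, and each value is the median of duplicate plates.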

[2] = compound: CCn1c(-c2nonc2N)nc2cnc(Oc3cccc(NC(=O)c4ccc(OCCN5CCOCC5)cc4)c3)cc21 + O=C(CCCCCCC(=O)Nc1ccccc1)NO [Vorinostat] (partner 1 µM)
How it was run: as §1

Mirin + Dasatinib = compound: N=C1NC(=O)/C(=C/c2ccc(O)cc2)S1 [Mirin] + Cc1nc(Nc2ncc(C(=O)Nc3c(C)cccc3Cl)s2)cc(N2CCN(CCO)CC2)n1 [Dasatinib] (partner 0.075 µM)
How it was run: as §1

[3] = compound: CCC1=CN=CN=C1N2CCN(CC2)CC3=NC4=C(N3)C=C(C=C4)C(F)(F)F + Cc1nc(NC(=O)N2CCC[C@H]2C(N)=O)sc1-c1ccnc(C(C)(C)C(F)(F)F)c1 [Alpelisib] (partner 2 µM)
How it was run: as §1

Row | Cell Line | relative viability ([1]; first compound 0.04 µM) | relative viability ([1]; first compound 0.1265 µM) | relative viability ([1]; first compound 0.4 µM) | relative viability ([1]; first compound 1.265 µM) | relative viability ([1]; first compound 4 µM) | relative viability ([2]; first compound 0.04 µM) | relative viability ([2]; first compound 0.1265 µM) | relative viability ([2]; first compound 0.4 µM) | relative viability ([2]; first compound 1.265 µM) | relative viability ([2]; first compound 4 µM) | relative viability (Mirin + Dasatinib; first compound 0.25 µM) | relative viability (Mirin + Dasatinib; first compound 0.7906 µM) | relative viability (Mirin + Dasatinib; first compound 2.5 µM) | relative viability (Mirin + Dasatinib; first compound 7.906 µM) | relative viability (Mirin + Dasatinib; first compound 25 µM) | relative viability ([3]; first compound 0.04 µM) | relative viability ([3]; first compound 0.1265 µM) | relative viability ([3]; first compound 0.4 µM) | relative viability ([3]; first compound 1.265 µM) | relative viability ([3]; first compound 4 µM)
1 | NCI-H1650 | 0.668 | 0.543 | 0.52 | 0.37 | 0.496 | 0.666 | 0.59 | 0.562 | 0.596 | 0.528 | 0.307 | 0.294 | 0.306 | 0.256 | 0.231 |  |  |  |  | 
2 | NCI-H2342 | 0.803 | 0.85 | 0.989 | 0.621 | 0.801 | 0.834 | 0.746 | 0.752 | 0.468 | 0.743 | 0.35 | 0.342 | 0.327 | 0.289 | 0.317 |  |  |  |  | 
3 | NCI-H1792 | 0.425 | 0.47 | 0.401 | 0.354 | 0.302 |  |  |  |  |  | 0.768 | 0.86 | 0.777 |  | 0.632 | 0.696 | 0.685 | 0.641 | 0.503 | 0.65
4 | ChaGo-K-1 | 1.06 | 0.928 | 0.844 | 0.89 | 0.866 | 1 | 0.684 | 0.514 | 0.536 | 0.55 | 0.504 | 0.575 | 0.541 | 0.542 | 0.39 |  |  |  |  | 
5 | NCI-H1623 |  |  |  |  |  |  |  |  |  |  | 0.46 | 0.426 | 0.542 | 0.44 | 0.497 |  |  |  |  | 
6 | HCC-44 | 1.06 | 1.12 | 1.04 | 1.05 | 1.03 | 1.13 | 1.18 | 1.14 | 1.07 | 1.09 |  |  |  |  |  | 0.789 | 0.746 | 0.815 | 0.743 | 0.713
7 | SW 900 | 0.602 | 0.802 | 0.828 | 0.918 | 0.849 | 0.651 | 0.602 | 0.76 | 0.61 | 0.621 | 0.513 | 0.521 | 0.54 | 0.542 | 0.47 |  |  |  |  | 
8 | ABC-1 |  |  |  |  |  | 1.25 | 0.8 | 0.822 | 0.32 | 0.665 | 0.682 | 0.525 | 0.62 | 0.536 | 0.375 | 0.987 | 1 | 1.08 | 0.942 | 0.971
9 | NCI-H1648 | 0.511 | 0.431 | 0.576 | 0.779 | 0.705 | 0.922 | 0.472 | 0.42 | 1.46 | 1 |  |  |  |  |  |  |  |  |  | 
10 | IA-LM |  |  |  |  |  | 1.08 | 0.997 | 1.03 | 0.998 | 1.39 |  |  |  |  |  | 0.805 | 0.752 | 0.668 | 0.766 | 0.748
11 | A549 |  |  |  |  |  |  |  |  |  |  |  |  |  |  |  | 0.763 | 0.657 | 0.849 | 0.698 | 0.831
